According to PubChem BioAssay AID330 (DTP/NCI, 2004):
Several values for one entry are separate records, joined by “and”; a condition that tells them apart may be missing. Equal entries are not always repeated. Inconclusive results and toxic doses are left out.

System: P388 leukemia ip, CD2F1 mice, survival T/C
Experiment: NCI In Vivo Anticancer Drug Screen. Data for tumor model P388 Leukemia (intraperitoneal) in CD2F1 (CDF1) mice
Settings: endpoint: median survival time, higher = longer survival
Outline: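 Mice carrying the transplanted tumor received test compound or vehicle. Survival was recorded in each group, and the value is the treated-group measurement divided by that of the vehicle-treated control group.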

[1] = dose: 50.0 mg/kg/injection, schedule: Q01DX005 (ip), vehicle: Klucel (hydroxypropylcellulose) (HPC)
[2] = dose: 100.0 mg/kg/injection, schedule: Q01DX005 (ip), vehicle: Klucel (hydroxypropylcellulose) (HPC)
[3] = dose: 200.0 mg/kg/injection, schedule: Q01DX005 (ip), vehicle: Klucel (hydroxypropylcellulose) (HPC)
[4] = dose: 50.0 mg/kg/injection, schedule: Q01DX009 (ip), vehicle: saline with Tween-80
[5] = dose: 60.0 mg/kg/injection, schedule: Q01DX005 (ip), vehicle: saline with Tween-80
[6] = dose: 120.0 mg/kg/injection, schedule: Q01DX005 (ip), vehicle: saline with Tween-80
[7] = dose: 240.0 mg/kg/injection, schedule: Q01DX005 (ip), vehicle: saline with Tween-80
[8] = dose: 12.5 mg/kg/injection, schedule: Q01DX005 (ip), vehicle: saline with Tween-80
[9] = dose: 25.0 mg/kg/injection, schedule: Q01DX005 (ip), vehicle: saline with Tween-80
[10] = dose: 50.0 mg/kg/injection, schedule: Q01DX005 (ip), vehicle: saline with Tween-80
[11] = dose: 12.5 mg/kg/injection, schedule: Q01DX009 (ip), vehicle: saline with Tween-80
[12] = dose: 60.0 mg/kg/injection, schedule: Q01DX005 (ip), vehicle: Klucel (hydroxypropylcellulose) (HPC)
[13] = dose: 120.0 mg/kg/injection, schedule: Q01DX005 (ip), vehicle: Klucel (hydroxypropylcellulose) (HPC)
[14] = dose: 240.0 mg/kg/injection, schedule: Q01DX005 (ip), vehicle: Klucel (hydroxypropylcellulose) (HPC)
[15] = dose: 100.0 mg/kg/injection, schedule: Q01DX005 (ip), vehicle: saline with Tween-80
[16] = dose: 200.0 mg/kg/injection, schedule: Q01DX005 (ip), vehicle: saline with Tween-80

COc1ccc2c(c1)CCC(c1nc3cccc([N+](=O)[O-])c3[nH]c1=O)=C2O
T/C (dose: 7.5 mg/kg/injection, schedule: Q01DX005 (ip), vehicle: Klucel + Tween-80): 91 % of control
T/C (dose: 15.0 mg/kg/injection, schedule: Q01DX005 (ip), vehicle: Klucel + Tween-80): 94 % of control
T/C (dose: 30.0 mg/kg/injection, schedule: Q01DX005 (ip), vehicle: Klucel + Tween-80): 92 % of control

COC1CC2C=CC3C4OC2(/C(C)=C/C(C)C(C(C)O)OC1=O)C3C(O)C(C)C4OC(=O)c1ccc[nH]1 (stereo unspecified)
T/C (dose: 12.5 mg/kg/injection, schedule: Q01DX005 (ip), vehicle: Klucel (hydroxypropylcellulose) (HPC)): 104 % of control
T/C (dose: 25.0 mg/kg/injection, schedule: Q01DX005 (ip), vehicle: Klucel (hydroxypropylcellulose) (HPC)): 99 % of control
T/C [1]: 95 % of control
T/C [2]: 99 % of control
T/C [3]: 98 % of control

CCOC(=O)c1ccc(NC)cc1
T/C [4]: 105 % of control
T/C (dose: 100.0 mg/kg/injection, schedule: Q01DX009 (ip), vehicle: saline with Tween-80): 102 % of control
T/C (dose: 200.0 mg/kg/injection, schedule: Q01DX009 (ip), vehicle: saline with Tween-80): 118 % of control

CC(=O)C1C(=O)C(=O)N(c2ccc(S(N)(=O)=O)cc2)C1=O (stereo unspecified)
T/C [5]: 103 % of control
T/C [6]: 104 % of control
T/C [7]: 118 % of control

COC1(OC)CCC(=O)N(Cc2ccccc2)c2cc(C)c(N(Cc3ccccc3)S(=O)(=O)c3ccc(C)cc3)cc2C1C (stereo unspecified)
T/C [8]: 95 % of control
T/C [9]: 90 % of control
T/C [10]: 86 % of control and 95 % of control

C#CCn1cc(F)c(=O)n(CC#C)c1=O
T/C (dose: 30.0 mg/kg/injection, schedule: Q04DX002 (ip), vehicle: saline with Tween-80): 101 % of control
T/C (dose: 60.0 mg/kg/injection, schedule: Q04DX002 (ip), vehicle: saline with Tween-80): 99 % of control
T/C (dose: 120.0 mg/kg/injection, schedule: Q04DX002 (ip), vehicle: saline with Tween-80): 98 % of control
T/C (dose: 150.0 mg/kg/injection, schedule: Q04DX002 (ip), vehicle: saline with Tween-80): 107 % of control
T/C (dose: 240.0 mg/kg/injection, schedule: Q04DX002 (ip), vehicle: saline with Tween-80): 100 % of control
T/C (dose: 300.0 mg/kg/injection, schedule: Q04DX002 (ip), vehicle: saline with Tween-80): 104 % of control
T/C (dose: 600.0 mg/kg/injection, schedule: Q04DX002 (ip), vehicle: saline with Tween-80): 98 % of control

COC1=CC(C)C2CC3OC(=O)CC4C(C)C(=O)C(O)C(C2(C)C1=O)C34C (stereo unspecified)
T/C (dose: 2.5 mg/kg/injection, schedule: Q01DX009 (ip), vehicle: Klucel (hydroxypropylcellulose) (HPC)): 90 % of control
T/C (dose: 5.0 mg/kg/injection, schedule: Q01DX009 (ip), vehicle: Klucel (hydroxypropylcellulose) (HPC)): 100 % of control
T/C (dose: 10.0 mg/kg/injection, schedule: Q01DX009 (ip), vehicle: Klucel (hydroxypropylcellulose) (HPC)): 106 % of control
T/C (dose: 20.0 mg/kg/injection, schedule: Q01DX009 (ip), vehicle: Klucel (hydroxypropylcellulose) (HPC)): 98 % of control

N#CCc1ccccc1C#N
T/C [8]: 100 % of control
T/C [9]: 99 % of control
T/C [10]: 101 % of control

O=NN(CCCl)C(=O)NC1CC2CCC1C2 (stereo unspecified)
T/C [11]: 195 % of control
T/C (dose: 25.0 mg/kg/injection, schedule: Q01DX009 (ip), vehicle: saline with Tween-80): 250 % of control
T/C (dose: 25.0 mg/kg/injection, schedule: Q04DX003 (ip), vehicle: saline with Tween-80): 225 % of control
T/C (dose: 33.0 mg/kg/injection, schedule: Q04DX003 (ip), vehicle: saline with Tween-80): 213 % of control
T/C [4]: 109 % of control
T/C (dose: 50.0 mg/kg/injection, schedule: Q04DX003 (ip), vehicle: saline with Tween-80): 204 % of control and 295 % of control
T/C (dose: 75.0 mg/kg/injection, schedule: Q04DX003 (ip), vehicle: saline with Tween-80): 90 % of control

COc1ccc(Cc2nnc(NN)[nH]c2=O)cc1OC
T/C [5]: 101 % of control
T/C [6]: 97 % of control

COc1ccc(C)cc1N=NC1C(=O)N(C(=O)CC(=O)Nc2cccc(C)c2)N=C1C (stereo unspecified)
T/C [12]: 95 % of control
T/C [13]: 89 % of control
T/C [14]: 90 % of control

ClCC#CCCl
T/C (dose: 6.25 mg/kg/injection, schedule: Q01DX009 (ip), vehicle: saline with Tween-80): 102 % of control
T/C [11]: 99 % of control

Cc1cccc(NC(=O)NC2CCCC(C)C2)c1 (stereo unspecified)
T/C (dose: 50.0 mg/kg/injection, schedule: Q01DX009 (ip), vehicle: saline): 98 % of control
T/C (dose: 100.0 mg/kg/injection, schedule: Q01DX009 (ip), vehicle: saline): 93 % of control
T/C (dose: 200.0 mg/kg/injection, schedule: Q01DX009 (ip), vehicle: saline): 91 % of control

NC(=O)C(CC(=O)O)NC(=O)OCc1ccccc1 (stereo unspecified)
T/C (dose: 4.0 mg/kg/injection, schedule: Q01DX009 (ip), vehicle: other): 100 % of control
T/C (dose: 8.0 mg/kg/injection, schedule: Q01DX009 (ip), vehicle: other): 114 % of control
T/C (dose: 16.0 mg/kg/injection, schedule: Q01DX009 (ip), vehicle: other): 101 % of control
T/C (dose: 32.0 mg/kg/injection, schedule: Q01DX009 (ip), vehicle: other): 98 % of control
T/C (dose: 50.0 mg/kg/injection, schedule: Q01DX009 (ip), vehicle: other): 96 % of control
T/C (dose: 64.0 mg/kg/injection, schedule: Q01DX009 (ip), vehicle: other): 91 % of control
T/C (dose: 100.0 mg/kg/injection, schedule: Q01DX009 (ip), vehicle: other): 90 % of control
T/C (dose: 150.0 mg/kg/injection, schedule: Q01DX009 (ip), vehicle: other): 109 % of control
T/C (dose: 200.0 mg/kg/injection, schedule: Q01DX009 (ip), vehicle: other): 105 % of control
T/C (dose: 400.0 mg/kg/injection, schedule: Q01DX009 (ip), vehicle: other): 113 % of control

c1ccc(OCCNCCOc2ccccc2)cc1
T/C [12]: 104 % of control
T/C [13]: 98 % of control
T/C [14]: 103 % of control

CC(C)NC(=O)OCc1c(COC(=O)NC(C)C)c2n(c1-c1ccc(Cl)c(Cl)c1)CCS2=O (stereo unspecified)
T/C [9]: 100 % of control
T/C [10]: 97 % of control
T/C [15]: 87 % of control

O=[N+]([O-])c1ccc(Sc2nc3ccccc3[nH]2)c(Cl)c1
T/C [1]: 99 % of control
T/C [2]: 100 % of control
T/C [3]: 117 % of control

O=C1c2ccccc2C(=O)N1Cc1ccccc1
T/C (dose: 100.0 mg/kg/injection, schedule: Q04DX003 (ip), vehicle: saline with Tween-80): 104 % of control
T/C (dose: 200.0 mg/kg/injection, schedule: Q04DX003 (ip), vehicle: saline with Tween-80): 95 % of control
T/C (dose: 400.0 mg/kg/injection, schedule: Q04DX003 (ip), vehicle: saline with Tween-80): 100 % of control

CSCCC(NC(=O)C(Cc1ccccc1)NC(=O)CNC(=O)CNC(=O)C(N)Cc1ccc(O)cc1)C(=O)O (stereo unspecified)
T/C [10]: 101 % of control
T/C [15]: 92 % of control
T/C [16]: 92 % of control

O=NN(CC(=O)O)CC1(O)OCC(O)C(O)C1O (stereo unspecified)
T/C (dose: 50.0 mg/kg/injection, schedule: Q01DX005 (ip), vehicle: saline): 94 % of control
T/C (dose: 100.0 mg/kg/injection, schedule: Q01DX005 (ip), vehicle: saline): 105 % of control
T/C (dose: 200.0 mg/kg/injection, schedule: Q01DX005 (ip), vehicle: saline): 103 % of control

S=c1sc(-c2ccc(Cl)cc2)nn1CSc1nc2ccccc2o1
T/C [5]: 97 % of control
T/C [6]: 101 % of control
T/C [7]: 95 % of control

CCCCCCCCCCCCCCCC(O)CC(O)CC(O)CC1CC=CC(=O)O1 (stereo unspecified)
T/C (dose: 4.0 mg/kg/injection, schedule: Q01DX009 (ip), vehicle: Klucel (hydroxypropylcellulose) (HPC)): 100 % of control
T/C (dose: 8.0 mg/kg/injection, schedule: Q01DX009 (ip), vehicle: Klucel (hydroxypropylcellulose) (HPC)): 100 % of control
T/C (dose: 16.0 mg/kg/injection, schedule: Q01DX009 (ip), vehicle: Klucel (hydroxypropylcellulose) (HPC)): 104 % of control
T/C (dose: 32.0 mg/kg/injection, schedule: Q01DX009 (ip), vehicle: Klucel (hydroxypropylcellulose) (HPC)): 109 % of control

Cc1cc(N)ccc1N=Nc1ccc(N=Nc2ccc(N=Nc3ccc4cc(S(=O)(=O)O)cc(S(=O)(=O)O)c4c3)c(C)c2)c(C)c1
T/C [10]: 114 % of control and 122 % of control
T/C [15]: 115 % of control and 118 % of control and 124 % of control
T/C [16]: 115 % of control
